Measurements as given in PubChem BioAssay (NCI).
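48-hour exposure; five concentrations; linearly interpolated endpoints. GI50 marks 50% less growth. The concentration for full growth arrest is given as TGI.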

How the values were obtained:
Experiment in all cases: NCI anticancer screen, dose series, 48 h
786-0 renal = system: 786-0 renal
A498 renal = system: A498 renal
A549 NSCLC = system: A549 NSCLC
ACHN renal = system: ACHN renal
BT-549 breast = system: BT-549 breast
CAKI-1 renal = system: CAKI-1 renal
CCRF-CEM leukemia = system: CCRF-CEM leukemia
COLO 205 colon = system: COLO 205 colon
DU-145 prostate = system: DU-145 prostate
EKVX NSCLC = system: EKVX NSCLC
HCC-2998 colon = system: HCC-2998 colon
HCT-116 colon = system: HCT-116 colon
HCT-15 colon = system: HCT-15 colon
HL-60(TB) leukemia = system: HL-60(TB) leukemia
HOP-62 NSCLC = system: HOP-62 NSCLC
HOP-92 NSCLC = system: HOP-92 NSCLC
HS 578T breast = system: HS 578T breast
HT29 colon = system: HT29 colon
IGROV1 ovarian = system: IGROV1 ovarian
K-562 leukemia = system: K-562 leukemia
KM12 colon = system: KM12 colon
LOX IMVI melanoma = system: LOX IMVI melanoma
M14 melanoma = system: M14 melanoma
MALME-3M melanoma = system: MALME-3M melanoma
MCF7 breast = system: MCF7 breast
MDA-MB-231 breast = system: MDA-MB-231 breast
MDA-MB-435 = system: MDA-MB-435
MOLT-4 leukemia = system: MOLT-4 leukemia
NCI-H226 lung = system: NCI-H226 lung

CCN(CC)c1ccc(/C=N/NC(=O)c2ccc(S(N)(=O)=O)cc2)c(O)c1
GI50 (786-0 renal): 370 nM
TGI (786-0 renal): 8870 nM
GI50 (A498 renal): 982 nM
TGI (A498 renal): 32700 nM
GI50 (A549 NSCLC): 1440 nM
TGI (A549 NSCLC): > 100000 nM
GI50 (ACHN renal): 465 nM
TGI (ACHN renal): > 100000 nM
GI50 (BT-549 breast): 480 nM
TGI (BT-549 breast): 7730 nM
GI50 (CAKI-1 renal): 393 nM
TGI (CAKI-1 renal): 30900 nM
GI50 (CCRF-CEM leukemia): 105 nM
TGI (CCRF-CEM leukemia): > 100000 nM
GI50 (COLO 205 colon): 296 nM
TGI (COLO 205 colon): 27000 nM
GI50 (DU-145 prostate): 540 nM
TGI (DU-145 prostate): > 79600 nM
GI50 (EKVX NSCLC): 397 nM
TGI (EKVX NSCLC): > 100000 nM
GI50 (HCC-2998 colon): 419 nM
TGI (HCC-2998 colon): > 80100 nM
GI50 (HCT-116 colon): 205 nM
TGI (HCT-116 colon): 56700 nM
GI50 (HCT-15 colon): 318 nM
TGI (HCT-15 colon): > 100000 nM
GI50 (HL-60(TB) leukemia): 206 nM
GI50 (HOP-62 NSCLC): 226 nM
TGI (HOP-62 NSCLC): 7180 nM
GI50 (HOP-92 NSCLC): 216 nM
TGI (HOP-92 NSCLC): 13100 nM
GI50 (HS 578T breast): 2250 nM
TGI (HS 578T breast): > 68000 nM
GI50 (HT29 colon): 485 nM
TGI (HT29 colon): > 54900 nM
GI50 (IGROV1 ovarian): 437 nM
TGI (IGROV1 ovarian): > 100000 nM
GI50 (K-562 leukemia): 408 nM
TGI (K-562 leukemia): > 100000 nM
GI50 (KM12 colon): 579 nM
TGI (KM12 colon): > 100000 nM
GI50 (LOX IMVI melanoma): 187 nM
TGI (LOX IMVI melanoma): 3610 nM
GI50 (M14 melanoma): 351 nM
TGI (M14 melanoma): 7140 nM
GI50 (MALME-3M melanoma): 482 nM
TGI (MALME-3M melanoma): 9430 nM
GI50 (MCF7 breast): 399 nM
TGI (MCF7 breast): > 100000 nM
GI50 (MDA-MB-231 breast): 389 nM
TGI (MDA-MB-231 breast): 28600 nM
GI50 (MDA-MB-435): 659 nM
TGI (MDA-MB-435): > 100000 nM
GI50 (MOLT-4 leukemia): 322 nM
TGI (MOLT-4 leukemia): > 100000 nM
GI50 (NCI-H226 lung): 821 nM
